Reference: article PMC11491390, “Inhibition of HCN1 currents by norquetiapine, an active metabolite of the atypical anti-psychotic drug quetiapine” (Frontiers in Pharmacology, 2024)

Molecular target: T1, HCN1 (Mus musculus, UniProt O88704)
T1 construct: full-length HCN1
Assay: two-electrode voltage clamp, channel expressed in Xenopus laevis oocytes (shift in V1/[…])
Type: cell-based

T1 sequence (O88704 whole entry): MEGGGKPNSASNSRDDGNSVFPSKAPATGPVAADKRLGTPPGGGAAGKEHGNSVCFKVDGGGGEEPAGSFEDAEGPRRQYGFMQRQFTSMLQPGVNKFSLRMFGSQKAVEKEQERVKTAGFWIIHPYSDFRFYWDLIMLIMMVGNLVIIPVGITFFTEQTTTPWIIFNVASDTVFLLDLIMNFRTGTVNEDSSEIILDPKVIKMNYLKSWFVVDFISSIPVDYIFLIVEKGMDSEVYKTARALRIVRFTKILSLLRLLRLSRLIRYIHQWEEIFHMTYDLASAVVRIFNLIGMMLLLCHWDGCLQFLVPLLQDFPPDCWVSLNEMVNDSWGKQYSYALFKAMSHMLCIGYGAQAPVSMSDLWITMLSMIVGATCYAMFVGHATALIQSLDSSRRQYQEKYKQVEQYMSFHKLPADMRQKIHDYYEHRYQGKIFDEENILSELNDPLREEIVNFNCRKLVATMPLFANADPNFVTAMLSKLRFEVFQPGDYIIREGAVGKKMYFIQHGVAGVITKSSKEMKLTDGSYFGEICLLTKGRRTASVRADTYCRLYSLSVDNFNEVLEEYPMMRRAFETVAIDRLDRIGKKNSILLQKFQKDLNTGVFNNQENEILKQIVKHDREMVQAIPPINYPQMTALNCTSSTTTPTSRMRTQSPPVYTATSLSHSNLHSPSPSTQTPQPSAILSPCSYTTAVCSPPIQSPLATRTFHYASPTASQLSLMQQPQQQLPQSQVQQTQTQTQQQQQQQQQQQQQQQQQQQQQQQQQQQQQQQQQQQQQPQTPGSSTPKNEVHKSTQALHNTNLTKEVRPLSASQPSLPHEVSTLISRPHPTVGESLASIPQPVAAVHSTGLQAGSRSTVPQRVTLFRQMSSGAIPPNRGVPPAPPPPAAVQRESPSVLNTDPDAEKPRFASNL

- IC50: 13.9 ± 0.8 µM
Compound: c1ccc2c(c1)N=C(N1CCNCC1)c1ccccc1S2 [NQTP, norquetiapine]
